PubChem BioAssay (NCI)
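Grown in 96-well plates, cells were treated for 48 hours with each compound at five concentrations. Insufficient inhibition: endpoint recorded as highest concentration tested. TGI denotes the concentration required for complete inhibition of growth.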

Legend:
Test in all cases: NCI anticancer screen, dose series, 48 h
786-0 renal = tested on: 786-0 renal
BT-549 breast = tested on: BT-549 breast
HCC-2998 colon = tested on: HCC-2998 colon
KM12 colon = tested on: KM12 colon
MDA-N = tested on: MDA-N
NCI/ADR-RES ovarian = tested on: NCI/ADR-RES ovarian
OVCAR-3 ovarian = tested on: OVCAR-3 ovarian
OVCAR-5 ovarian = tested on: OVCAR-5 ovarian
SK-MEL-5 melanoma = tested on: SK-MEL-5 melanoma
TK-10 renal = tested on: TK-10 renal
U251 CNS = tested on: U251 CNS

## CCOC(=O)c1nnc2c(C#N)c(-c3ccccc3)c(C)n2c1N
786-0 renal
  TGI: > 100 µM
BT-549 breast
  TGI: > 100 µM
HCC-2998 colon
  TGI: > 100 µM
KM12 colon
  TGI: > 100 µM
MDA-N
  TGI: > 100 µM
NCI/ADR-RES ovarian
  TGI: > 100 µM
OVCAR-3 ovarian
  TGI: > 100 µM
OVCAR-5 ovarian
  TGI: > 100 µM
SK-MEL-5 melanoma
  TGI: > 100 µM
TK-10 renal
  TGI: > 100 µM
U251 CNS
  TGI: > 100 µM

## CC(=O)N(C(C)=O)c1cc2c3c(c1)CCCN3CCC2
786-0 renal
  TGI: > 10 µM
BT-549 breast
  TGI: > 10 µM
HCC-2998 colon
  TGI: > 10 µM
KM12 colon
  TGI: > 10 µM
MDA-N
  TGI: > 10 µM
NCI/ADR-RES ovarian
  TGI: > 10 µM
OVCAR-3 ovarian
  TGI: > 10 µM
OVCAR-5 ovarian
  TGI: > 10 µM
SK-MEL-5 melanoma
  TGI: > 10 µM
TK-10 renal
  TGI: > 10 µM
U251 CNS
  TGI: > 10 µM

## BrCC[N+]12CC[N+](CCBr)(CC1)C2
786-0 renal
  TGI: > 100 µM
BT-549 breast
  TGI: > 100 µM
HCC-2998 colon
  TGI: > 100 µM
KM12 colon
  TGI: > 100 µM
MDA-N
  TGI: > 100 µM
NCI/ADR-RES ovarian
  TGI: > 100 µM
OVCAR-3 ovarian
  TGI: > 100 µM
OVCAR-5 ovarian
  TGI: > 100 µM
SK-MEL-5 melanoma
  TGI: > 100 µM
TK-10 renal
  TGI: > 100 µM
U251 CNS
  TGI: > 100 µM

## Fc1ccc(C(OCCN2CC3CCC(C2)N3CCCc2ccccc2)c2ccc(F)cc2)cc1
786-0 renal
  TGI: 13.4 µM
BT-549 breast
  TGI: 24.8 µM
HCC-2998 colon
  TGI: 8.06 µM
KM12 colon
  TGI: 12.2 µM
MDA-N
  TGI: 11.8 µM
NCI/ADR-RES ovarian
  TGI: 15.2 µM
OVCAR-3 ovarian
  TGI: 21.8 µM
OVCAR-5 ovarian
  TGI: 23.3 µM
SK-MEL-5 melanoma
  TGI: 3.4 µM
TK-10 renal
  TGI: 24 µM
U251 CNS
  TGI: 16.1 µM

## CCOC1CC(C)N(C(=O)c2ccccc2)O1 (stereo not given)
786-0 renal
  TGI: > 100 µM
BT-549 breast
  TGI: > 100 µM
HCC-2998 colon
  TGI: > 100 µM
KM12 colon
  TGI: > 100 µM
MDA-N
  TGI: > 100 µM
NCI/ADR-RES ovarian
  TGI: > 100 µM
OVCAR-3 ovarian
  TGI: > 100 µM
OVCAR-5 ovarian
  TGI: > 100 µM
SK-MEL-5 melanoma
  TGI: > 100 µM
TK-10 renal
  TGI: > 100 µM
U251 CNS
  TGI: > 100 µM

## CN(C)c1ccc(C=C2C(=O)NC(=S)NC2=O)c2ccccc12
786-0 renal
  TGI: > 100 µM
BT-549 breast
  TGI: > 100 µM
HCC-2998 colon
  TGI: > 100 µM
KM12 colon
  TGI: > 100 µM
MDA-N
  TGI: > 100 µM
NCI/ADR-RES ovarian
  TGI: > 100 µM
OVCAR-3 ovarian
  TGI: > 100 µM
OVCAR-5 ovarian
  TGI: > 100 µM
SK-MEL-5 melanoma
  TGI: > 100 µM
TK-10 renal
  TGI: > 100 µM
U251 CNS
  TGI: > 100 µM

## N#Cc1c(O)c(/C=N/c2ncccn2)c(=O)n2c1[nH]c1ccccc12
786-0 renal
  TGI: > 100 µM
BT-549 breast
  TGI: > 100 µM
HCC-2998 colon
  TGI: > 100 µM
KM12 colon
  TGI: > 100 µM
MDA-N
  TGI: > 100 µM
NCI/ADR-RES ovarian
  TGI: > 100 µM
OVCAR-3 ovarian
  TGI: > 100 µM
OVCAR-5 ovarian
  TGI: > 100 µM
SK-MEL-5 melanoma
  TGI: > 100 µM
TK-10 renal
  TGI: > 100 µM
U251 CNS
  TGI: > 100 µM

## Cc1nc2sccn2c1/C=C1/C(=O)Nc2cccc(Cl)c21
786-0 renal
  TGI: > 100 µM
BT-549 breast
  TGI: > 100 µM
HCC-2998 colon
  TGI: > 100 µM
KM12 colon
  TGI: > 100 µM
MDA-N
  TGI: 38.1 µM
NCI/ADR-RES ovarian
  TGI: > 100 µM
OVCAR-3 ovarian
  TGI: > 100 µM
OVCAR-5 ovarian
  TGI: > 100 µM
SK-MEL-5 melanoma
  TGI: > 100 µM
TK-10 renal
  TGI: > 100 µM
U251 CNS
  TGI: > 100 µM

## CCOP(=O)(OCC)OC1c2[nH]cc(C(=O)OCc3ccccc3)c2-c2cc(C(=O)OC)[nH]c2C1OC (stereo not given)
786-0 renal
  TGI: 27.4 µM
BT-549 breast
  TGI: 45.9 µM
HCC-2998 colon
  TGI: > 78.9 µM
KM12 colon
  TGI: > 92.6 µM
MDA-N
  TGI: > 100 µM
NCI/ADR-RES ovarian
  TGI: 59.5 µM
OVCAR-3 ovarian
  TGI: 54.8 µM
OVCAR-5 ovarian
  TGI: > 96.1 µM
SK-MEL-5 melanoma
  TGI: > 82.8 µM
TK-10 renal
  TGI: > 39.9 µM
U251 CNS
  TGI: > 96.6 µM

## CCOC(=O)NN(C(=O)OCC)c1c(C)cc(C)cc1C
786-0 renal
  TGI: > 100 µM
BT-549 breast
  TGI: > 100 µM
HCC-2998 colon
  TGI: > 100 µM
KM12 colon
  TGI: > 100 µM
MDA-N
  TGI: > 100 µM
NCI/ADR-RES ovarian
  TGI: > 100 µM
OVCAR-3 ovarian
  TGI: > 100 µM
OVCAR-5 ovarian
  TGI: > 100 µM
SK-MEL-5 melanoma
  TGI: > 100 µM
TK-10 renal
  TGI: > 100 µM
U251 CNS
  TGI: > 100 µM

## O=C(NNC(=O)c1csc(NC(=S)NC2CCCCC2)n1)c1ccccc1
786-0 renal
  TGI: 31 µM
BT-549 breast
  TGI: 46.5 µM
HCC-2998 colon
  TGI: 32.2 µM
KM12 colon
  TGI: 28.8 µM
MDA-N
  TGI: 31.1 µM
NCI/ADR-RES ovarian
  TGI: 50.8 µM
OVCAR-3 ovarian
  TGI: 16.4 µM
OVCAR-5 ovarian
  TGI: 76.3 µM
SK-MEL-5 melanoma
  TGI: 19.7 µM
TK-10 renal
  TGI: 85.6 µM
U251 CNS
  TGI: 20.4 µM

## COc1ccc(-c2oc3c(OC)c(OC)cc(O)c3c(=O)c2OC)cc1
786-0 renal
  TGI: > 100 µM
BT-549 breast
  TGI: > 100 µM
HCC-2998 colon
  TGI: > 100 µM
KM12 colon
  TGI: > 100 µM
MDA-N
  TGI: > 100 µM
NCI/ADR-RES ovarian
  TGI: > 100 µM
OVCAR-3 ovarian
  TGI: > 100 µM
OVCAR-5 ovarian
  TGI: > 100 µM
SK-MEL-5 melanoma
  TGI: > 100 µM
TK-10 renal
  TGI: > 100 µM
U251 CNS
  TGI: > 100 µM

## COC(=O)/C=C1/OC(c2ccc(OC)cc2)=C(Cl)C1=O
786-0 renal
  TGI: 24.4 µM
BT-549 breast
  TGI: 26.3 µM
HCC-2998 colon
  TGI: 41.1 µM
KM12 colon
  TGI: 36.4 µM
MDA-N
  TGI: 32.7 µM
NCI/ADR-RES ovarian
  TGI: 66.5 µM
OVCAR-3 ovarian
  TGI: 26.3 µM
OVCAR-5 ovarian
  TGI: 31.6 µM
SK-MEL-5 melanoma
  TGI: 27.2 µM
TK-10 renal
  TGI: 40.1 µM
U251 CNS
  TGI: 22.4 µM

## ClCCCCCc1c2nc(c(CCCCCCl)c3ccc([nH]3)c(CCCCCCl)c3ccc([nH]3)c(CCCCCCl)c3nc1C=C3)C=C2
786-0 renal
  TGI: > 100 µM
BT-549 breast
  TGI: > 100 µM
HCC-2998 colon
  TGI: > 100 µM
KM12 colon
  TGI: > 100 µM
MDA-N
  TGI: > 100 µM
NCI/ADR-RES ovarian
  TGI: > 100 µM
OVCAR-3 ovarian
  TGI: > 100 µM
OVCAR-5 ovarian
  TGI: > 100 µM
SK-MEL-5 melanoma
  TGI: > 100 µM
TK-10 renal
  TGI: > 100 µM
U251 CNS
  TGI: > 100 µM

## CC(C)Oc1c(-c2ccc(F)cc2)c(O)c2c3c1oc(=O)n3C=CC2C (stereo not given)
786-0 renal
  TGI: 27.8 µM
BT-549 breast
  TGI: 28 µM
HCC-2998 colon
  TGI: 26.2 µM
KM12 colon
  TGI: 34.3 µM
MDA-N
  TGI: 27.1 µM
NCI/ADR-RES ovarian
  TGI: 29.3 µM
OVCAR-3 ovarian
  TGI: 27.9 µM
OVCAR-5 ovarian
  TGI: 62.2 µM
SK-MEL-5 melanoma
  TGI: 22.9 µM
TK-10 renal
  TGI: 30.7 µM
U251 CNS
  TGI: 30.3 µM

## CC[C@@]1(O)C(=O)OCc2c1cc1n(c2=O)Cc2c-1nc1ccccc1c2/C=N/NC(=O)c1ccc(N)cc1
786-0 renal
  TGI: 5.03 µM
BT-549 breast
  TGI: > 100 µM
HCC-2998 colon
  TGI: > 69.9 µM
KM12 colon
  TGI: > 75.9 µM
MDA-N
  TGI: > 37.6 µM
NCI/ADR-RES ovarian
  TGI: > 37.8 µM
OVCAR-3 ovarian
  TGI: > 100 µM
OVCAR-5 ovarian
  TGI: > 100 µM
SK-MEL-5 melanoma
  TGI: 1.1 µM
TK-10 renal
  TGI: > 100 µM
U251 CNS
  TGI: 7.63 µM

## O=C(c1cc2c(c3ccccc13)NC1(CCCCC1)N=C2C(F)(F)F)C(F)(F)F
786-0 renal
  TGI: 14.1 µM
BT-549 breast
  TGI: 15.8 µM
HCC-2998 colon
  TGI: 10.4 µM
KM12 colon
  TGI: 14.2 µM
MDA-N
  TGI: 14.2 µM
NCI/ADR-RES ovarian
  TGI: 17 µM
OVCAR-3 ovarian
  TGI: 7.81 µM
OVCAR-5 ovarian
  TGI: 21.5 µM
SK-MEL-5 melanoma
  TGI: 18.2 µM
TK-10 renal
  TGI: 14 µM
U251 CNS
  TGI: 13.9 µM

## CC(=O)OC(Cc1c(O)c2c(C)cccc2oc1=O)C(C)(C)O (stereo not given)
786-0 renal
  TGI: > 100 µM
BT-549 breast
  TGI: > 100 µM
HCC-2998 colon
  TGI: > 100 µM
KM12 colon
  TGI: > 100 µM
MDA-N
  TGI: > 100 µM
NCI/ADR-RES ovarian
  TGI: > 100 µM
OVCAR-3 ovarian
  TGI: > 100 µM
OVCAR-5 ovarian
  TGI: > 100 µM
SK-MEL-5 melanoma
  TGI: > 100 µM
TK-10 renal
  TGI: > 100 µM
U251 CNS
  TGI: > 100 µM

## CC(=O)OC(C)(C)CCC(=O)[C@](C)(O)[C@H]1[C@H](O)C[C@@]2(C)[C@@H]3CCc4c(cc(OC5OC(CO)C(O)C(O)C5O)c(O)c4C)C3(C)C(=O)C[C@]12C (stereo not given in full)
786-0 renal
  TGI: > 100 µM
BT-549 breast
  TGI: > 100 µM
HCC-2998 colon
  TGI: > 100 µM
KM12 colon
  TGI: > 100 µM
MDA-N
  TGI: > 100 µM
NCI/ADR-RES ovarian
  TGI: > 100 µM
OVCAR-3 ovarian
  TGI: > 100 µM
OVCAR-5 ovarian
  TGI: > 100 µM
SK-MEL-5 melanoma
  TGI: > 100 µM
TK-10 renal
  TGI: > 100 µM
U251 CNS
  TGI: > 100 µM

## CC1=C(C(=O)N[C@@H](CC(C)C)C(=O)O)N2C(=O)[C@@H](NC(=O)C(N)c3ccccc3)[C@H]2SC1 (stereo not given in full)
786-0 renal
  TGI: > 100 µM
BT-549 breast
  TGI: > 100 µM
HCC-2998 colon
  TGI: > 100 µM
KM12 colon
  TGI: > 100 µM
MDA-N
  TGI: > 100 µM
NCI/ADR-RES ovarian
  TGI: > 100 µM
OVCAR-3 ovarian
  TGI: > 100 µM
OVCAR-5 ovarian
  TGI: > 100 µM
SK-MEL-5 melanoma
  TGI: > 100 µM
TK-10 renal
  TGI: > 100 µM
U251 CNS
  TGI: > 100 µM
